From patent US20230146455A1, “TREATMENT OF INFLAMMATORY DISEASES WITH PEPTIDES AND PHARMACEUTICAL COMPOSITIONS” (Yuyu Pharma, Inc., priority 2020, published 2023)
“And” between values parts separate entries of the source, which are not always exact repeats. Identical values can stand only once. Where a SMILES comes first, the peptide text is derived from it. [ ]: non-standard residue; d: D form. Hyp = O=C(O)[C@@H]1C[C@@H](O)CN1

System: IL-4
Assay: Example 9 Luminex, LPS hPBMCs: IL-4
Format: cell-based, human
Experimental: Treatment Human PBMCs were pretreated with YY-101, YDE-011 and YDE-043 or reference compound; Xiidra® at various concentration (ranging from 1 nM to 100 uM) for 2 h before stimulation. An equal volume of 0.5% DMSO was used as a vehicle control. Then, the cells were treated with LPS at 5 ug/ml. The supernatants from treated cells were harvested at 24 h and placed in a 96 well for Luminex cytokine & chemokine profiling using a Luminex 200 multiplex assay (Luminex; R&D system, USA).
The main study arm with triplicate wells per group in a 24-well plate: • 1. Blank • 2. PBMC: 0.5% DMSO • 3. PBMC+LPS (5 ug/ml) • 4. PBMC+YY-101 100 uM • 5. PBMC+YY-101 10 uM • 6. PBMC+YY-101 1 uM • 7. PBMC+YY-101 0.1 uM • 8. PBMC+YY-101 0.01 uM • 9. PBMC+LPS (5 ug/ml)+Xiidra®100 uM • 10. PBMC+LPS (5 ug/ml)+Xiidra® 10 uM • 11. PBMC+LPS (5 ug/ml)+Xiidra® 1 uM • 12. PBMC+LPS (5 ug/ml)+Xiidra®0.1 uM • 13. PBMC+LPS (5 ug/ml)+Xiidra®0.01 uM • 14. PBMC+LPS (5 ug/ml)+Xiidra®0.001 uM • 15. PBMC+LPS (5 ug/ml)+YY-101 100 uM • 16. PBMC+LPS (5 ug/ml)+YY-101 10 uM • 17. PBMC+LPS (5 ug/ml)+YY-101 1 uM • 18. PBMC+LPS (5 ug/ml)+YY-101 0.1 uM • 19. PBMC+LPS (5 ug/ml)+YY-101 0.01 uM • 20. PBMC+LPS (5 ug/ml)+YY-101 0.001 uM • 21. PBMC+LPS (5 ug/ml)+YDE-011 100 uM • 22. PBMC+LPS (5 ug/ml)+YDE-011 10 uM • 23. PBMC+LPS (5 ug/ml)+YDE-011 1 uM • 24. PBMC+LPS (5 ug/ml)+YDE-011 0.1 uM • 25. PBMC+LPS (5 ug/ml)+YDE-011 0.01 uM • 26. PBMC+LPS (5 ug/ml)+YDE-011 0.001 uM • 27. PBMC+LPS (5 ug/ml)+YDE-043 100 uM • 28. PBMC+LPS (5 ug/ml)+YDE-043 10 uM • 29. PBMC+LPS (5 ug/ml)+YDE-043 1 uM • 30. PBMC+LPS (5 ug/ml)+YDE-043 0.1 uM • 31. PBMC+LPS (5 ug/ml)+YDE-043 0.01 uM • 32. PBMC+LPS (5 ug/ml)+YDE-043 0.001 uM
Multiplex assay was used to measure 30 cytokines and chemokines. The 1:2, 1:10 and 1:200 diluted cell supernatant and serial dilution of the standard were dispensed into a 96 well plate at 50 ul/well. Then, the pre-mixed cocktail of antibody-coated magnetic beads was dispensed at 50 ul/well and incubated at room temperature for 2 h in a horizontal orbital microplate shaker at 800±500 rpm. The beads were washed using a magnetic device to prevent loss. The biotin-antibody was dispensed in 50 ul of each well and incubated at room temperature for 1 h in a shaker at 800±500 rpm. After washing, streptavidin-PE was added at 50 ul/well and incubated at room temperature for 30 min in a shaker under the same conditions. Finally, after washing, wash buffer (100 ul/well) was added to the plate and incubated in a shaker for 2 min. The Luminex™ 200 setting were set according to the manufacturer's protocol. The data was calculated with a standard five-parameter logistic nonlinear regression analysis of the data (xPonent software 4.2, USA). The levels of cytokine/chemokine are normalized to the live cell counts (1×10^5 cells/mL) and presented as concentrations per mL (pg/mL or ng/mL).

[1] = PBMC + LPS(5 ug/ml) + test article 0.001 uM, Mean
[2] = PBMC + LPS(5 ug/ml) + test article 0.001 uM, single replicates
[3] = PBMC + LPS(5 ug/ml) + test article 0.01 uM, Mean
[4] = PBMC + LPS(5 ug/ml) + test article 0.01 uM, single replicates
[5] = PBMC + LPS(5 ug/ml) + test article 0.1 uM, Mean
[6] = PBMC + LPS(5 ug/ml) + test article 0.1 uM, single replicates
[7] = PBMC + LPS(5 ug/ml) + test article 1 uM, Mean
[8] = PBMC + LPS(5 ug/ml) + test article 1 uM, single replicates
[9] = PBMC + LPS(5 ug/ml) + test article 10 uM, Mean
[10] = PBMC + LPS(5 ug/ml) + test article 10 uM, single replicates
[11] = PBMC + LPS(5 ug/ml) + test article 100 uM, Mean
[12] = PBMC + LPS(5 ug/ml) + test article 100 uM, single replicates
[13] = PBMC + test article 0.01 uM, no LPS, Mean
[14] = PBMC + test article 0.01 uM, no LPS, single replicates
[15] = PBMC + test article 0.1 uM, no LPS, Mean
[16] = PBMC + test article 0.1 uM, no LPS, single replicates
[17] = PBMC + test article 1 uM, no LPS, Mean
[18] = PBMC + test article 1 uM, no LPS, single replicates
[19] = PBMC + test article 10 uM, no LPS, Mean
[20] = PBMC + test article 10 uM, no LPS, single replicates
[21] = PBMC + test article 100 uM, no LPS, Mean
[22] = PBMC + test article 100 uM, no LPS, single replicates

SMILES: CC(C)C[C@H](NC(=O)CNC(=O)[C@H](CC(=O)O)NC(=O)[C@H](CCC(N)=O)NC(=O)CNC(=O)[C@@H]1C[C@@H](O)CN1)C(=O)N[C@@H](C)C(=O)NCC(=O)N1CCC[C@H]1C(=O)N[C@@H](CCCCN)C(=O)O [YY-101] (H-[Hyp]GQDGLAGPK-OH; N-terminus and C-terminus assumed)
- Concentration, Bead name: IL-4 [1]: 26.0 pg/mL
- MFI, Bead name: IL-4 [1]: 1.0
- conc/live cell, Bead name: IL-4 [1]: 4.0 pg/10^5
- Concentration, Bead name: IL-4 [2]: 18.4 pg/mL and 33.2 pg/mL and 26.4 pg/mL
- MFI, Bead name: IL-4 [2]: 0.0 and 2.0 and 1.0
- conc/live cell, Bead name: IL-4 [2]: 3.2 pg/10^5 and 4.7 pg/10^5 and 4.0 pg/10^5
- Concentration, Bead name: IL-4 [3]: 33.2 pg/mL
- MFI, Bead name: IL-4 [3]: 2.0
- conc/live cell, Bead name: IL-4 [3]: 5.4 pg/10^5
- Concentration, Bead name: IL-4 [4]: 33.2 pg/mL
- MFI, Bead name: IL-4 [4]: 2.0
- conc/live cell, Bead name: IL-4 [4]: 5.2 pg/10^5 and 5.5 pg/10^5 and 5.4 pg/10^5
- Concentration, Bead name: IL-4 [5]: 39.2 pg/mL
- MFI, Bead name: IL-4 [5]: 3.0
- conc/live cell, Bead name: IL-4 [5]: 6.8 pg/10^5
- Concentration, Bead name: IL-4 [6]: 39.4 pg/mL and 45.1 pg/mL and 33.2 pg/mL
- MFI, Bead name: IL-4 [6]: 3.0 and 4.0 and 2.0
- conc/live cell, Bead name: IL-4 [6]: 6.4 pg/10^5 and 8.7 pg/10^5 and 5.4 pg/10^5
- Concentration, Bead name: IL-4 [7]: 33.2 pg/mL
- MFI, Bead name: IL-4 [7]: 2.0
- conc/live cell, Bead name: IL-4 [7]: 5.1 pg/10^5
- Concentration, Bead name: IL-4 [8]: 33.2 pg/mL
- MFI, Bead name: IL-4 [8]: 2.0
- conc/live cell, Bead name: IL-4 [8]: 5.3 pg/10^5 and 4.7 pg/10^5 and 5.4 pg/10^5
- Concentration, Bead name: IL-4 [9]: 23.7 pg/mL
- MFI, Bead name: IL-4 [9]: 0.7
- conc/live cell, Bead name: IL-4 [9]: 3.6 pg/10^5
- Concentration, Bead name: IL-4 [10]: 26.4 pg/ml (2×) and 18.4 pg/ml
- MFI, Bead name: IL-4 [10]: 1.0 (2×) and 0.0
- conc/live cell, Bead name: IL-4 [10]: 4.4 pg/10^5 and 4.1 pg/10^5 and 2.4 pg/10^5
- Concentration, Bead name: IL-4 [11]: 14.8 pg/mL
- MFI, Bead name: IL-4 [11]: −0.3
- conc/live cell, Bead name: IL-4 [11]: 2.5 pg/10^5
- Concentration, Bead name: IL-4 [12]: 18.4 pg/ml (2×) and 7.7 pg/ml
- MFI, Bead name: IL-4 [12]: 0.0 (2×) and −1.0
- conc/live cell, Bead name: IL-4 [12]: 2.9 pg/10^5 and 3.0 pg/10^5 and 1.5 pg/10^5
- Concentration, Bead name: IL-4 [13]: 27.9 pg/mL
- MFI, Bead name: IL-4 [13]: 1.3
- conc/live cell, Bead name: IL-4 [13]: 5.6 pg/10^5
- Concentration, Bead name: IL-4 [14]: 22.6 pg/mL and 33.2 pg/mL
- MFI, Bead name: IL-4 [14]: 0.5 and 2.0
- conc/live cell, Bead name: IL-4 [14]: 4.3 pg/10^5 and 6.9 pg/10^5
- Concentration, Bead name: IL-4 [15]: 29.8 pg/mL
- MFI, Bead name: IL-4 [15]: 1.5
- conc/live cell, Bead name: IL-4 [15]: 5.9 pg/10^5
- Concentration, Bead name: IL-4 [16]: 26.4 pg/mL and 33.2 pg/mL
- MFI, Bead name: IL-4 [16]: 1.0 and 2.0
- conc/live cell, Bead name: IL-4 [16]: 6.0 pg/10^5 and 5.7 pg/10^5
- Concentration, Bead name: IL-4 [17]: 18.4 pg/mL
- MFI, Bead name: IL-4 [17]: 0.0
- conc/live cell, Bead name: IL-4 [17]: 3.3 pg/10^5
- Concentration, Bead name: IL-4 [18]: 18.4 pg/mL
- MFI, Bead name: IL-4 [18]: 0.0
- conc/live cell, Bead name: IL-4 [18]: 3.3 pg/10^5
- Concentration, Bead name: IL-4 [19]: 47.4 pg/mL
- MFI, Bead name: IL-4 [19]: 4.5
- conc/live cell, Bead name: IL-4 [19]: 7.6 pg/10^5
- Concentration, Bead name: IL-4 [20]: 55.5 pg/mL and 39.4 pg/mL
- MFI, Bead name: IL-4 [20]: 6.0 and 3.0
- conc/live cell, Bead name: IL-4 [20]: 8.7 pg/10^5 and 6.5 pg/10^5
- Concentration, Bead name: IL-4 [21]: 13.0 pg/mL
- MFI, Bead name: IL-4 [21]: −0.5
- conc/live cell, Bead name: IL-4 [21]: 1.9 pg/10^5
- Concentration, Bead name: IL-4 [22]: 7.7 pg/mL and 18.4 pg/mL
- MFI, Bead name: IL-4 [22]: −1.0 and 0.0
- conc/live cell, Bead name: IL-4 [22]: 1.2 pg/10^5 and 2.6 pg/10^5
